Several values for one entry are separate records, joined by “and”; a condition that tells them apart may be missing. Equal values may be shown once.
Columns and labels:
[1] = target: T1, cynomolgus monkey B2 receptor (Macaca fascicularis, UniProt A0A7N9CWN6); assay: cell-based
T1 sequence (A0A7N9CWN6 1-391): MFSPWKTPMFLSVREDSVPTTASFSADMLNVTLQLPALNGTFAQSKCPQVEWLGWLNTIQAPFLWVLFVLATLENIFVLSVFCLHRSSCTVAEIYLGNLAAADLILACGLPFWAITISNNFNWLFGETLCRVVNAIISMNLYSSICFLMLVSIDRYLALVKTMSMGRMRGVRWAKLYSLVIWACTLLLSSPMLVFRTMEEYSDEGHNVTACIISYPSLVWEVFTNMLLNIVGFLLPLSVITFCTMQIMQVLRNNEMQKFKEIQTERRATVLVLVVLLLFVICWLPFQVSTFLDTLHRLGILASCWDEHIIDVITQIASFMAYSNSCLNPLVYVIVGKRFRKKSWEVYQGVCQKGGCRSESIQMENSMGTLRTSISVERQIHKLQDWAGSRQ

rat B2 receptor = target: T2, rat B2 receptor (Rattus norvegicus, UniProt P25023); assay: Ca^2+ mobilization assay, HEK293T cells; format: cell-based; conditions: BK at EC80 4.32 nM
T2 construct: host or cells: HEK293T cells
T2 sequence (P25023 1-396): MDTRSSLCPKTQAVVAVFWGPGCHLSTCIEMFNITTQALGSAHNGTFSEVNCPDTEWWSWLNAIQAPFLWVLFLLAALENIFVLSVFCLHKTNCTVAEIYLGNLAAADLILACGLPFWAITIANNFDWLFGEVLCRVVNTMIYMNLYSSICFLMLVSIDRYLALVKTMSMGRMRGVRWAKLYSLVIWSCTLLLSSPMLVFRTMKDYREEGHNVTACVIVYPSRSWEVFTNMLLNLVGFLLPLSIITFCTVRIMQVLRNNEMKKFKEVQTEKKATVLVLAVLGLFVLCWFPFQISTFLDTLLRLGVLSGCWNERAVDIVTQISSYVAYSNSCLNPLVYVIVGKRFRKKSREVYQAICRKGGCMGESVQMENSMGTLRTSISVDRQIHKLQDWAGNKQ

mouse B2 receptor = target: T3, mouse B2 receptor (Mus musculus, UniProt P32299); assay: Ca^2+ mobilization assay, HEK293T cells; format: cell-based; conditions: BK at EC80 0.53 nM, n=1
T3 construct: host or cells: HEK293T cells
T3 sequence (P32299 1-392): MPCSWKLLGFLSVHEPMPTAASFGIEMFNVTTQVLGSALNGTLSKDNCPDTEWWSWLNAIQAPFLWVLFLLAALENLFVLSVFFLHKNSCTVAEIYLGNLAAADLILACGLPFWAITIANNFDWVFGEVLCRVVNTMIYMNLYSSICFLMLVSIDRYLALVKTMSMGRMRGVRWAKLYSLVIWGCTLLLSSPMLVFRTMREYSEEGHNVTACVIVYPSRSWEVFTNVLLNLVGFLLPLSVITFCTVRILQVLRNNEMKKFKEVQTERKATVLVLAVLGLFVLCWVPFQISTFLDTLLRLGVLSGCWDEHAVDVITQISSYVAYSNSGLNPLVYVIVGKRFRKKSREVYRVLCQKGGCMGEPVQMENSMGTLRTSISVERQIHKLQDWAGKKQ

dog B2 receptor = target: T4, dog B2 receptor (Canis lupus familiaris, UniProt Q9BDQ4); assay: Ca^2+ mobilization assay, HEK293T cells; format: cell-based; conditions: Dog; BK at EC80 1.86 nM; n=1; read-out: IC50 (nM) Mean
T4 sequence (Q9BDQ4 1-392): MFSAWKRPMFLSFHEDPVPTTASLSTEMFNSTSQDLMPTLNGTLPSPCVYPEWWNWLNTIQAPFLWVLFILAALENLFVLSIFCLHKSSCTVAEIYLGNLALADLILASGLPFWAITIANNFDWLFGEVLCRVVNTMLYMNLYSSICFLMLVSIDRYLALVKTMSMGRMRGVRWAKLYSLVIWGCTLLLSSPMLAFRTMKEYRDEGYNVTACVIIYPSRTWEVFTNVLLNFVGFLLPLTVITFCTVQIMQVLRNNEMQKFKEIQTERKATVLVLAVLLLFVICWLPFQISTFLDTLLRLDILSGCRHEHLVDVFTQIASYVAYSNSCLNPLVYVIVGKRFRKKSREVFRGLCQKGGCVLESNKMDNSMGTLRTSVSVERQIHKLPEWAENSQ

kinin B1 receptor = target: T5, kinin B1 receptor (Homo sapiens, UniProt P46663); assay: umbilical vein, Sar-[D-Phe^8]des-Arg^9-BK-induced contraction; conditions: 1 μM
T5 construct: during the 3-hour incubation period to upregulate the expression of B1; from tissue; host or cells: human umbilical vein rings pre-incubated with interleukin-1β and tumor necrosis factor-α
T5 sequence (P46663 whole entry): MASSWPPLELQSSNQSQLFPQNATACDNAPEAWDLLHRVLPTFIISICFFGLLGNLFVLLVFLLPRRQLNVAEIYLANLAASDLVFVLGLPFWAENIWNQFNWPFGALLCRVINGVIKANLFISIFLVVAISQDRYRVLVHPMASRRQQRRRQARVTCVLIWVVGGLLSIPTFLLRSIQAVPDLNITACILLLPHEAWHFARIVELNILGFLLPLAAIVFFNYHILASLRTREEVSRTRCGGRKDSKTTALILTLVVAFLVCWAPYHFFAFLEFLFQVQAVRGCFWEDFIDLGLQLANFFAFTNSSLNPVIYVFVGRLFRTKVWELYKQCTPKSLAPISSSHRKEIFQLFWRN

[2] = target: T6, endogenous human B2 receptor (Homo sapiens, UniProt P30411); assay: human isolated umbilical vein contractility assay, BK-induced contraction; conditions: for Maximal BK-induced response in absolute force units ± S.E.M.: vehicle: Icatibant 1.90, Compound 1 […]
T6 construct: BK-induced contraction at endogenous human B2 receptor in the umbilical vein model; from tissue; host or cells: human umbilical vein rings (donor cords after elective caesarean section)
T6 sequence (P30411 1-391): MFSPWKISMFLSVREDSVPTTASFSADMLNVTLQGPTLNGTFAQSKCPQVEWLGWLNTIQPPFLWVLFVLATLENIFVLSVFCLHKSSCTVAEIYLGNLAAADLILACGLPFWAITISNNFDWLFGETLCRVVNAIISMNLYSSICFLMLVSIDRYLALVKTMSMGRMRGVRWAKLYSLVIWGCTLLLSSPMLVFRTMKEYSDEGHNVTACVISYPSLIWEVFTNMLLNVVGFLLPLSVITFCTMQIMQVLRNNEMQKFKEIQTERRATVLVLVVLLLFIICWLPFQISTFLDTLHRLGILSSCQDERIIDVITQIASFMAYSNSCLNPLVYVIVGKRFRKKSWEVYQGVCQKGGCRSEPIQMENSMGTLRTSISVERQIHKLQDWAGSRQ

Neurokinin NK2 = target: T7, Neurokinin NK2 (Homo sapiens, UniProt P21452); parameters: method as in FDA Pharmacology Review Icatibant; conditions: ref FDA Pharmacology Review Icatibant; read-out: IC50, binding to NK2 receptors; cited from earlier work
T7 construct: host or cells: CHO cells
T7 sequence (P21452 1-398): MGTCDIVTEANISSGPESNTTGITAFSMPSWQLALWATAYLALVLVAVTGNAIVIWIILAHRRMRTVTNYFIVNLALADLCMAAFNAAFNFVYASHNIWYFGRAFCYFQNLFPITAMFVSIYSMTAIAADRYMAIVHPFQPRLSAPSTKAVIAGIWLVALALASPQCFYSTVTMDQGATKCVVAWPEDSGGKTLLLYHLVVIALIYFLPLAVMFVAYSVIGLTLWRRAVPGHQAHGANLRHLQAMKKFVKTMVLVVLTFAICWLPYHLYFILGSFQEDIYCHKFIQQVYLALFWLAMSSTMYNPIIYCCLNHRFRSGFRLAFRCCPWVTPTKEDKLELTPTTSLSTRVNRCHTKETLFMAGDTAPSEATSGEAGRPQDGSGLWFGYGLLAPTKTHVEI

[3] = target: T6, endogenous human B2 receptor; parameters: method as in Marceau et al., 1994; conditions: umbilical vein; ref Marceau et al., 1994; cited from earlier work

NC(N)=NCCC[C@@H](N)C(=O)N[C@@H](CCCN=C(N)N)C(=O)N1CCC[C@H]1C(=O)N1C[C@H](O)C[C@H]1C(=O)NCC(=O)N[C@@H](Cc1cccs1)C(=O)N[C@@H](CO)C(=O)N1Cc2ccccc2C[C@@H]1C(=O)N1[C@H](C(=O)N[C@@H](CCCN=C(N)N)C(=O)O)C[C@@H]2CCCC[C@@H]21 [icatibant, reference compound]
IC50 [1]: 0.0171 µM
Kb [1]: 0.00406 µM
IC50 (rat B2 receptor): 37.4 nM
IC50 (mouse B2 receptor): 15.5 nM
IC50 (dog B2 receptor): 87.1 nM
effect on contraction by B1 receptor agonist Sar-[D-Phe^8]des-Arg^9-BK (kinin B1 receptor): failed to antagonize
type of antagonism of BK ([2]; BK concentration-effect curves, Emax): competitive (surmountable) antagonist
Schild plot slope ([2]; Schild regression, Pharm/PCS, ± S.E.M. where given): -0.85 ± 0.16 and −0.85
Maximal BK-induced response in absolute force units ± S.E.M. ([2]; antagonist 10 nM, Compound 2 2.25, Compound 3 1.52): 1.47 ± 0.19 grams-weight
Maximal BK-induced response in absolute force units ± S.E.M. ([2]; antagonist 100 nM, Compound 2 2.25, Compound 3 1.52): 1.50 ± 0.27 grams-weight
Maximal BK-induced response in absolute force units ± S.E.M. ([2]; antagonist 1 μM, Compound 2 2.25, Compound 3 1.52): 1.40 ± 0.22 grams-weight
Maximal BK-induced response in absolute force units ± S.E.M. ([2]; antagonist 10 μM, Compound 2 2.25): 1.27 ± 0.17 grams-weight
pA2 value converted into nM ([2]; potency from pA2): 8.71 nM and 8.7 nM
IC50 (Neurokinin NK2): 0.42 µM
pA2, previously reported value [3]: 8.2

Reference: paper PMC7316994, “In Vitro Pharmacological Profile of a New Small Molecule Bradykinin B2 Receptor Antagonist” (Frontiers in Pharmacology, 2020)
